Columns and labels:
[1] = test system: IL-1α; experiment: synovial IL-1α expression in arthritic rats (Northern blot); assay type: in vivo, rat; conditions: BMOV-treated (with NAC) vs control, Day 18
Method: Collagenase, stromelysin, and IL-1 expression were quantitated in each group of rats. Selected rats in each group were sacrificed on Day 18 post arthritis onset to measure collagenase, stromelysin, and IL-1 expression via the Northern Blot. Synovial biopsies were pooled and homogenized in the presence of RNASTAT-60 (Tel Test). Total RNA was isolated following the manufacturer's instructions, washed in 70% ethanol, and dissolved in 30 μl RNA loading buffer (Sigma) containing ethidium bromide. The RNA was electrophoresed on a 1% agarose formaldehyde gel and transferred to 0.45 μm nylon filter membrane (Magna NT, MSL). The blot was prehybridised in 50% formamide, 5×SSPE, 5×dendhardts, 1% SDS, 200 μg/ml ssDNA and 50 μg/ml tRNA. The rat collagenase cDNA (bp. 1-550 of locus RATCOL genbank accession M60616), rat stromelysin (ATCC, Rockville, Md.), or rat […] (genbank accession D00403) were labeled by random primed incorporation of ^32 P-dATP (Random Primed Labeling Kit, Boerhinger Manheim). After overnight hybridization at 42° C. overnight, the blot was washed in 1×SSPE at 37° C. and exposed to Kodak X-Ornat AP film for 24 hours at -70° C. with an intensifying screen. The blot was stripped with 50% formamide in 2×SSPE, checked for residual counts and reprobed. The resulting autoradiographs were digitized and analyzed with NIH image software and normalized for RNA loading.

[2] = test system: fos; experiment: fos / c-fos mRNA expression in chondrocytes (Northern blot); assay type: cell-based, bovine; conditions: 100 μM
Method in brief: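 Bovine articular chondrocytes incubated 1 h with IL-1, PMA or AA (3 μM), or treated with IL 1 ± DPI, or with H2O2 for 30, 60 and 90 min. Total RNA run on formaldehyde agarose gels and probed by Northern blot with c-fos, c-jun or collagenase cDNA.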

[3] = test system: PGE2; experiment: PGE2 production by chondrocytes (RIA); assay type: cell-based, bovine; conditions: 100 μM
Method: The effect of orthovanadate and N-acetylcysteine on fos, jun and collagenase expression were examined. Bovine articular chondrocytes were isolated and plated as previously described (Kandel R. A. et al. Biochim. Biophys. Acta. 1053, 130-134, 1990). In order to determine the effect of orthovanadate on IL 1 and PMA (phorbol ester) induced responses, chondrocytes were incubated with orthovanadate (100 μM) for 2 hours before stimulation with IL 1 (10 ng/ml) or PMA ([…]). Collagenase production was determined by incubating chondrocytes for 24 hours with IL 1 or PMA and the cell conditioned medium was assayed for collagenase activity using an ELISA procedure as described previously (Kandel et al. supra). PLA2 activity was measured by incorporating ^3 H-arachidonic acid (^3 H-AA) into the cells and then incubating the cells with medium containing 1 mg/ml BSA, either alone or in the presence of IL 1 or PMA, for 10 min. as previously described (Conquer, J. A. […], Biochim. Biophys. Acta. 1134, 1-6). The amount of ^3 H-AA liberated into the supernatant was determined. To measure PGE2 production, chondrocytes were incubated for 6 hours in Ham's F12 medium, either alone or with IL 1 or PMA. The supernatant was analyzed by RIA using an antibody specific for PGE2 (Dr. S. A. Jones, Mount Sinai Hospital, Toronto, Canada). […]

[4] = test system: metastases of MDAY-D2 cells; experiment: liver metastases of MDAY-D2 cells (histology); assay type: in vivo, mice; conditions: 500 μg/day; preliminary results
Source text: In order to examine the ability of vanadyl compounds to reduce tumor formation, growth and metastases, a specific animal model which allows investigation of all of these processes in the same animal was chosen. This model involves the injection of a metastatic haematopoietic cell line, MDAY-D2, into mice subcutaneously. These cells form a tumor at the site of injection and its size can be easily determined. In addition, these cells metastasize to the liver and metastases can be detected histologically after day 17 to 19. This model provides a very sensitive and reproducible approach to investigate the effect of vanadyl compounds on tumor growth and metastases.
The metastatic liver was obtained from an animal 24 days following the administration MDAY-D2 cells. The nodules are quite numerous and large.
Livers were removed from animals treated as described above and prepared for histological examination. FIG. 16 compares liver sections from untreated (C), orthovanadate (VO)(500 μg/day) and vanadyl sulphate (VS)(500 μg/day) treated animals. Nodules are identified with an arrow.

SMILES	percent inhibition of IL-1α gene expression [1] [%]	inhibition of IL 1, PMA and AA induced c-fos expression [2]	inhibition of IL 1 or PMA induced PGE2 production [3]	metastases in liver [4]
Cc1occc(=O)c1[O-].Cc1occc(=O)c1[O-].[O]=[V+2] [BMOV, bis(methylmaltolato) oxovanadium (IV)]	85			
[Na+].[Na+].[Na+].[O]=[V]([O-])([O-])[O-] [orthovanadate, sodium orthovanadate]		completely inhibited	did not inhibit	did not have detectable levels of metastases

— patent US5871779A, “Treatment of arthropathies with vanadate compounds or analogues thereof” (Mount Sinai Hospital Corporation, priority 1996, dated 1999)
